Here are results for eleven molecules from patent US6391305B1, “Conjugates useful in the treatment of prostate cancer” (priority 1999, dated 2002).

Marks after values point to notes of the source that are not given here. Non-standard residues stand in square brackets, D forms with d. Residues, ends and D or L forms follow the SMILES beside them. *: point of attachment. Doxorubicin(3'-N) = COc1cccc2c1C(=O)c1c(O)c3c(c(O)c1C2=O)C[C@@](O)(C(=O)CO)C[C@@H]3O[C@H]1C[C@H](N*)[C@H](O)[C@H](C)O1; Decanoyl(3,6,9-trioxa) = COCCOCCOCC(=O)*; Glyceroyl(2S) = O=C([C@@H](O)CO)*; Glyceroyl(2R) = O=C([C@H](O)CO)*; hArg = N=C(N)NCCCC[C@H](N)C(=O)O; Chg = N[C@H](C(=O)O)C1CCCCC1; Nle = CCCC[C@H](N)C(=O)O; Glycolyl = O=C(CO)*

One data set has as its system DuPRO cells. Nature of the data set: In vitro cytotoxicity, Alamar Blue assay, DuPRO. Type of data set: cell-based. As to conditions: value in parentheses beside the LNCaP value, read-out: DuPRO cell kill EC 50. As to the method:
(§1) The cytotoxicities of the cleaveable oligopeptide-doxorubicin conjugates, prepared as described in Examples 3-6, against a line of cells which is known to be killed by unmodified doxorubicin was assessed with an Alamar Blue assay. Specifically, cell cultures of LNCap prostate tumor cells or DuPRO cells in 96 well plates was diluted with medium containing various concentrations of a given conjugate (final plate well volume of 200 μl ). The cells were incubated for 3 days at 37° C., 20 μl of Alamar Blue is added to the assay well. The cells were further incubated and the assay plates were read on a EL-310 ELISA reader at the dual wavelengths of 570 and 600 nm at 4 and 7 hours after addition of Alamar Blue. Relative percentage viability at the various concentration of conjugate tested was then calculated versus control (no conjugate) cultures. If no salt is indicated, the free conjugate was tested.
A general note: Resazurin is reduced to fluorescent resorufin, in cell work by metabolically active cells.

The target in data set [1] is T1, enzymatically active free PSA (Homo sapiens, UniProt P07288).
T1 construct: required for 50% cleavage of the noted oligopeptides with enzymatically active free PSA
In words: Recognition (cleavage) of oligopeptide-doxorubicin conjugates by free PSA, HPLC. Type of data set: biochemical. As to conditions: DOX conjugate; for Time to 50% Substrate Cleavage by York PSA: PSA digestion buffer pH7.4, 140 mM NaCl, molar ratio to PSA 100 to 1. As to the method:
If no salt is indicated for the conjugate, the free conjugate was tested.

Data set [2] has as its system LNCap prostate tumor cells. In words: In vitro cytotoxicity, Alamar Blue assay, LNCaP. Type of data set: cell-based. The note with it: 72 HRS, read-out: LNCaP Cell Kill in 72 HRS, {48 HRS} EC 50. As to the method:
as §1

T1 sequence (P07288 25-261): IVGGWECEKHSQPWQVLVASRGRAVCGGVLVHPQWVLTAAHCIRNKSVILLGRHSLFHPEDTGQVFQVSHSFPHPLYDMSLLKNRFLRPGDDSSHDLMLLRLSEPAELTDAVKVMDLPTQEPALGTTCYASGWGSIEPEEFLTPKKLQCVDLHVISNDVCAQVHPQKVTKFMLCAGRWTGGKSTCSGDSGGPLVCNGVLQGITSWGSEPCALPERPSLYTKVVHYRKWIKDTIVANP

Turning to `COc1cccc2c1C(=O)c1c(O)c3c(c(O)c1C2=O)C[C@@](O)(C(=O)CO)C[C@@H]3O[C@H]1C[C@H](NC(=O)[C@H](CC(C)C)NC(=O)[C@H](CO)NC(=O)[C@H](CCC(N)=O)NC(=O)[C@@H](NC(=O)[C@H](CO)NC(=O)[C@H](CO)NC(=O)[C@H](CO)NC(=O)[C@@H](O)CO)C2CCCCC2)[C@H](O)[C@H](C)O1` [N-2(S)-2,3-dihydroxypropionyl-Ser-Ser-Ser-Chg-Gln-Ser-Leu-Dox] ({Glyceroyl(2S)}-SSS[Chg]QSL-{Doxorubicin(3'-N)}), the EC50 with DuPRO cells was above 100 µM; in data set [2], 5.5 µM. In data set [1], the “Time to 50% Substrate Cleavage by York PSA” value came out at 25 min.
The corresponding values for `COc1cccc2c1C(=O)c1c(O)c3c(c(O)c1C2=O)C[C@@](O)(C(=O)CO)C[C@@H]3O[C@H]1C[C@H](NC(=O)[C@@H](CC(C)C)NC(=O)[C@H](CO)NC(=O)[C@H](CCC(N)=O)NC(=O)[C@@H](NC(=O)[C@H](CO)NC(=O)[C@H](CO)NC(=O)[C@H](CO)NC(=O)[C@@H](O)CO)C2CCCCC2)[C@H](O)[C@H](C)O1` [(l)(2,3-dihydroxypropionyl)SerSerSerChgGln-Ser(dLeu)-DOX (3′)] ({Glyceroyl(2S)}-SSS[Chg]QS[dL]-{Doxorubicin(3'-N)}) are above 100 µM, 91 µM and 180 min.
For `COc1cccc2c1C(=O)c1c(O)c3c(c(O)c1C2=O)C[C@@](O)(C(=O)CO)C[C@@H]3O[C@H]1C[C@H](NC(=O)[C@H](CC(C)C)NC(=O)[C@H](CO)NC(=O)[C@H](CCC(N)=O)NC(=O)[C@@H](NC(=O)[C@H](CO)NC(=O)[C@H](CO)NC(=O)[C@H](CO)NC(=O)CO)C2CCCCC2)[C@H](O)[C@H](C)O1` [2-hydroxyacetyl-SSSChgQ-SL-DOX (3′), N-(2-Hydroxyacetyl)-Ser-Ser-Ser-Chg-Gln-Ser-Leu-Dox] (Glycolyl-SSS[Chg]QSL-{Doxorubicin(3'-N)}) the same measures were above 100 µM, 7.2 µM and 25 min.
The corresponding values for `COCCOCCOCC(=O)N[C@@H](CCCCNC(=N)N)C(=O)N[C@@H](CO)C(=O)N[C@@H](CO)C(=O)N[C@H](C(=O)N[C@@H](CCC(N)=O)C(=O)N[C@@H](CO)C(=O)N[C@@H](CC(C)C)C(=O)N[C@H]1C[C@H](O[C@H]2C[C@](O)(C(=O)CO)Cc3c(O)c4c(c(O)c32)C(=O)c2c(OC)cccc2C4=O)O[C@@H](C)[C@H]1O)C1CCCCC1` [PEG(2)-HomoRSSChgQ-SL-DOX (3′), PEG(2)-hArgSerSerChgGln-SerLeu-DOX (3′)] ({Decanoyl(3,6,9-trioxa)}-[hArg]SS[Chg]QSL-{Doxorubicin(3'-N)}) are above 100 µM, 5.7 µM and 11 min.
`COc1cccc2c1C(=O)c1c(O)c3c(c(O)c1C2=O)C[C@@](O)(C(=O)CO)C[C@@H]3O[C@H]1C[C@H](NC(=O)[C@H](CC(C)C)NC(=O)[C@H](CO)NC(=O)[C@H](CCC(N)=O)NC(=O)[C@@H](NC(=O)[C@H](CCCCNC(=N)N)NC(=O)[C@H](CO)NC(=O)[C@H](O)CO)C2CCCCC2)[C@H](O)[C@H](C)O1` [(d) 2,3-dihydroxypropionyl-SerhArgChgGln-SerLeu-DOX (3′)] ({Glyceroyl(2R)}-S[hArg][Chg]QSL-{Doxorubicin(3'-N)}): the EC50 in the data set with DuPRO cells was above 100 µM; in data set [2], 5.8 µM. Further, the “Time to 50% Substrate Cleavage by York PSA” value in data set [1] turned out to be 65 min.
For `COc1cccc2c1C(=O)c1c(O)c3c(c(O)c1C2=O)C[C@@](O)(C(=O)CO)C[C@@H]3O[C@H]1C[C@H](NC(=O)[C@H](CC(C)C)NC(=O)[C@H](CO)NC(=O)[C@H](CCC(N)=O)NC(=O)[C@@H](NC(=O)[C@H](CO)NC(=O)[C@H](CO)NC(=O)CO)C2CCCCC2)[C@H](O)[C@H](C)O1` [2-hydroxyacetyl-SSChgQ-SL-DOX (3′)] (Glycolyl-SS[Chg]QSL-{Doxorubicin(3'-N)}) the same measures were above 100 µM, 4.8 µM and 45 min.
For `COc1cccc2c1C(=O)c1c(O)c3c(c(O)c1C2=O)C[C@@](O)(C(=O)CO)C[C@@H]3O[C@H]1C[C@H](NC(=O)[C@H](CC(C)C)NC(=O)[C@H](CO)NC(=O)[C@H](CCC(N)=O)NC(=O)[C@@H](NC(=O)[C@H](CO)NC(=O)[C@H](CO)NC(=O)[C@H](O)CO)C2CCCCC2)[C@H](O)[C@H](C)O1` [(d)(2,3-dihydroxypropionyl)SerSerChgGln-SerLeu-DOX (3′)] ({Glyceroyl(2R)}-SS[Chg]QSL-{Doxorubicin(3'-N)}) the same measures were above 100 µM, 9.1 µM and 120 min.
On to `CCCC[C@H](NC(=O)[C@H](CO)NC(=O)[C@H](CCC(N)=O)NC(=O)[C@H](Cc1ccc(O)cc1)NC(=O)[C@H](CO)NC(=O)[C@H](CO)NC(=O)[C@H](CCCCNC(=N)N)NC(=O)CO)C(=O)N[C@H]1C[C@H](O[C@H]2C[C@](O)(C(=O)CO)Cc3c(O)c4c(c(O)c32)C(=O)c2c(OC)cccc2C4=O)O[C@@H](C)[C@H]1O` [2-hydroxyacetyl-HomoRSSYQ-SNle-DOX (3′), 2-hydroxyacetyl-hArgSerSerTyrGln-SerNle-DOX (3′)] (Glycolyl-[hArg]SSYQS[Nle]-{Doxorubicin(3'-N)}), for which the results for the EC50 (with DuPRO cells; in data set [2]) were above 100 µM and 3.6 µM, respectively. Moreover, the “Time to 50% Substrate Cleavage by York PSA (Min), value marked *” value in data set [1] (alternative PSA digestion buffer pH8.0, 25 mM NaCl, 0.5 mM CaCl2) is given as 60* Min.
Turning to `COc1cccc2c1C(=O)c1c(O)c3c(c(O)c1C2=O)C[C@@](O)(C(=O)CO)C[C@@H]3O[C@H]1C[C@H](NC(=O)[C@H](CC(C)C)NC(=O)[C@H](CO)NC(=O)[C@H](CCC(N)=O)NC(=O)[C@@H](NC(=O)[C@H](CO)NC(=O)[C@H](CO)NC(=O)[C@H](CCCCNC(=N)N)NC(=O)[C@H](O)CO)C2CCCCC2)[C@H](O)[C@H](C)O1` [(d)(2,3-dihydroxypropionyl)-hArgSerSerChgGln-SerLeu-DOX(3′)] ({Glyceroyl(2R)}-[hArg]SS[Chg]QSL-{Doxorubicin(3'-N)}), the values for the EC50 (in the data set on DuPRO cells; in data set [2]) were above 100 µM and 7.7 µM, respectively. Further, the “Time to 50% Substrate Cleavage by York PSA” value in data set [1] was determined as 12 min.
For `COCCOCCOCC(=O)N[C@@H](CO)C(=O)N[C@@H](CO)C(=O)N[C@H](C(=O)N[C@@H](CCC(N)=O)C(=O)N[C@@H](CO)C(=O)N[C@@H](CC(C)C)C(=O)N[C@H]1C[C@H](O[C@H]2C[C@](O)(C(=O)CO)Cc3c(O)c4c(c(O)c32)C(=O)c2c(OC)cccc2C4=O)O[C@@H](C)[C@H]1O)C1CCCCC1` [PEG(2)SSChgQ-SL-DOX (3′), PEG(2)SerSerChgGln-SerLeu-DOX (3′)] ({Decanoyl(3,6,9-trioxa)}-SS[Chg]QSL-{Doxorubicin(3'-N)}) the same measures were above 100 µM, 8.8 µM and 90 min.
With `COc1cccc2c1C(=O)c1c(O)c3c(c(O)c1C2=O)C[C@@](O)(C(=O)CO)C[C@@H]3O[C@H]1C[C@H](NC(=O)[C@H](CC(C)C)NC(=O)[C@H](CO)NC(=O)[C@H](CCC(N)=O)NC(=O)[C@@H](NC(=O)[C@H](CO)NC(=O)[C@H](CO)NC(=O)[C@H](CCCCNC(=N)N)NC(=O)CO)C2CCCCC2)[C@H](O)[C@H](C)O1` [2-hydroxyacetyl-HomoRSSChgQ-SL-DOX (3′), 2-hydroxyacetyl-hArgSerSerChgGln-SerLeu-DOX (3′)] (Glycolyl-[hArg]SS[Chg]QSL-{Doxorubicin(3'-N)}), the EC50 with DuPRO cells was above 100 µM; in data set [2], 5.5 µM.
